Experimental data reported in patent US9388189B2, “Pyrrolotriazinone derivatives as PI3K inhibitors” (ALMIRALL, S.A., priority 2012, dated 2016).

These compounds were tested against PI3Kδ (PI3Kd) (Homo sapiens (Human), UniProt O00329) (assay: PI3K HTRF enzymatic inhibition assay (cell-free), delta isoform). Conditions: read-out: IC50 PI3Kd HTRF; recombinant PI3K delta, [ATP] 15 μM, [PIP2] 2 μM, 30 min preincubation.
Chain of PI3Kδ (PI3Kd) (O00329 whole entry, canonical isoform): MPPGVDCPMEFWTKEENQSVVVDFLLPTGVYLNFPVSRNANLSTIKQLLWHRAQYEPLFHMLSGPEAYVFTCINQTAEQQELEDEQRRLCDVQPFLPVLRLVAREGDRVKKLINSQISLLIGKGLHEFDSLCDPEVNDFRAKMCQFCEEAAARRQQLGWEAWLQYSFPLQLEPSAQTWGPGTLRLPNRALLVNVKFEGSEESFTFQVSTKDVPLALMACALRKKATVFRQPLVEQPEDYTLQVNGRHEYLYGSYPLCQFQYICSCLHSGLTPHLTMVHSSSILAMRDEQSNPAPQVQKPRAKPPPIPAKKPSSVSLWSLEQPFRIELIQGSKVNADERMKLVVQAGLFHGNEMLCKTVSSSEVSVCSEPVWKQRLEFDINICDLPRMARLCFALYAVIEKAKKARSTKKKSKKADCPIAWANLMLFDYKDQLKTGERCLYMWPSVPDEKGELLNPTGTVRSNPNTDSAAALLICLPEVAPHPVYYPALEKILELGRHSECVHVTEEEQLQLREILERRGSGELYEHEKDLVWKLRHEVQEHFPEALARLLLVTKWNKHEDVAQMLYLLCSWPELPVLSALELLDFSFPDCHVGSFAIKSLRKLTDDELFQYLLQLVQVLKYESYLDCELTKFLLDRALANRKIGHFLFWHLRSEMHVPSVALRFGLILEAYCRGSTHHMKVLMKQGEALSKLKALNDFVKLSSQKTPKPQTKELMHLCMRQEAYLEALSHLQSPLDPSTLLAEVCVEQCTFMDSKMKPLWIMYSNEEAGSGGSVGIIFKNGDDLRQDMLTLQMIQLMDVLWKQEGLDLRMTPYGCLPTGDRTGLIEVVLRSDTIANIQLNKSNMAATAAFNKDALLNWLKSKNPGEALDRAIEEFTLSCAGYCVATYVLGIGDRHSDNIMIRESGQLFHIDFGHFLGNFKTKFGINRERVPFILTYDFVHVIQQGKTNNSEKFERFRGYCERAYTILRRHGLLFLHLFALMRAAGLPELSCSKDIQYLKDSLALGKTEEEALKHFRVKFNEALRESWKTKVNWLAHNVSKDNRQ
Chain of PI3Kδ (PI3Kd) (P27986 whole entry partner, canonical isoform): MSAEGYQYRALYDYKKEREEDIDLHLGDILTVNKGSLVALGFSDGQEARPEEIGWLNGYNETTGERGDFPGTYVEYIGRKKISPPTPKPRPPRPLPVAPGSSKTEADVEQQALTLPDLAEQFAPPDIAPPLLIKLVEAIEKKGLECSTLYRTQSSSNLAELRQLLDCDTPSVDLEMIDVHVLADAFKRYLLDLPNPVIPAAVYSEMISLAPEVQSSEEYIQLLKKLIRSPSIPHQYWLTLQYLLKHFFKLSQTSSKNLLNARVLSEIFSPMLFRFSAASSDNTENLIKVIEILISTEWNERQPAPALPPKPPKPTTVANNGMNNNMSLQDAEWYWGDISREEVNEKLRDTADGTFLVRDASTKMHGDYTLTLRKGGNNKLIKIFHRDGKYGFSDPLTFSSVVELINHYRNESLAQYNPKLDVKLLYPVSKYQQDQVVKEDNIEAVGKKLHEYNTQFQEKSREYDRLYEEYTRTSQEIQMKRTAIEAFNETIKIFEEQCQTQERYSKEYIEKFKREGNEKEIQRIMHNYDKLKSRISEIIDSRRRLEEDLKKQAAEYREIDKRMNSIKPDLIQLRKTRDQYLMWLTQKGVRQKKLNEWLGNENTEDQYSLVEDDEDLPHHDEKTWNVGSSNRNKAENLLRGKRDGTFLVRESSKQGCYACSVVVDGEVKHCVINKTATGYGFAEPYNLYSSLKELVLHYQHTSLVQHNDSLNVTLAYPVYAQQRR

IC50 [nM] | Structure (SMILES)
22 | C[C@H](Nc1ncnc(N)c1-c1nccs1)c1nn2cccc2c(=O)n1-c1ccccc1 [Example 2, (S)-2-(1-((6-Amino-5-(thiazol-2-yl)pyrimidin-4-yl)amino)ethyl)-3-phenylpyrrolo[2,1-f][1,2,4]triazin-4(3H)-one]
40 | C[C@H](Nc1ncnc(N)c1-c1ccc(N)nc1)c1nn2cccc2c(=O)n1-c1ccccc1 [Example 3, (S)-2-(1-((6-Amino-5-(6-aminopyridin-3-yl)pyrimidin-4-yl)amino)ethyl)-3-phenylpyrrolo[2,1-f][1,2,4]triazin-4(3H)-one]
17 | C[C@H](Nc1ncnc(N)c1-c1cnn(CCO)c1)c1nn2cccc2c(=O)n1-c1ccccc1 [Example 5, (S)-2-(1-((6-Amino-5-(1-(2-hydroxyethyl)-1H-pyrazol-4-yl)pyrimidin-4-yl)amino)ethyl)-3-phenylpyrrolo[2,1-f][1,2,4]triazin-4(3H)-one]
11 | C[C@H](Nc1ncnc(N)c1-c1cc(O)cc(F)c1)c1nn2cccc2c(=O)n1-c1ccccc1 [Example 7, (S)-2-(1-((6-Amino-5-(3-fluoro-5-hydroxyphenyl)pyrimidin-4-yl)amino)ethyl)-3-phenylpyrrolo[2,1-f][1,2,4]triazin-4(3H)-one]
3 | Cc1ccn2nc([C@H](C)Nc3ncnc(N)c3-c3ccc4cc[nH]c4c3)n(-c3ccccc3)c(=O)c12 [Example 15, (S)-2-(1-((6-Amino-5-(1H-indol-6-yl)pyrimidin-4-yl)amino)ethyl)-5-methyl-3-phenylpyrrolo[2,1-f][1,2,4]triazin-4(3H)-one]
5 | Cc1ccn2nc([C@H](C)Nc3ncnc(N)c3-c3cnc(N)nc3)n(-c3ccccc3)c(=O)c12 [Example 16, (S)-2-(1-((2′,6-Diamino-[5,5′-bipyrimidin]-4-yl)amino)ethyl)-5-methyl-3-phenylpyrrolo[2,1-f][1,2,4]triazin-4(3H)-one]
6 | N#Cc1c(N)ncnc1N[C@@H](CCOCc1ccccc1)c1nn2ccc(C#N)c2c(=O)n1-c1cc(F)cc(F)c1 [Example 17, (S)-2-(1-((6-Amino-5-cyanopyrimidin-4-yl)amino)-3-(benzyloxy)propyl)-3-(3,5-difluorophenyl)-4-oxo-3,4-dihydropyrrolo[2,1-f][1,2,4]triazine-5-carbonitrile]
95 | N#Cc1c(N)ncnc1N[C@@H](CCSCc1ccccc1)c1nn2cccc2c(=O)n1-c1ccccc1 [Example 19, (S)-4-Amino-6-((3-(benzylthio)-1-(4-oxo-3-phenyl-3,4-dihydropyrrolo[2,1-f][1,2,4]triazin-2-yl)propyl)amino)pyrimidine-5-carbonitrile]
1 | N#Cc1c(N)ncnc1N[C@@H](CCOc1ccccc1)c1nn2cccc2c(=O)n1-c1ccccc1 [Example 20, (S)-4-Amino-6-((1-(4-oxo-3-phenyl-3,4-dihydropyrrolo[2,1-f][1,2,4]triazin-2-yl)-3-phenoxypropyl)amino)pyrimidine-5-carbonitrile]
12 | COc1ncc(-c2c(N)ncnc2N[C@@H](C)c2nn3ccc(C)c3c(=O)n2-c2ccccc2)cc1NS(=O)(=O)c1ccc(F)cc1 [Example 22, (S)—N-(5-(4-Amino-6-((1-(5-methyl-4-oxo-3-phenyl-3,4-dihydropyrrolo[2,1-f][1,2,4]triazin-2-yl)ethyl)amino)pyrimidin-5-yl)-2-methoxypyridin-3-yl)-4-fluorobenzenesulfonamide]
97 | N#Cc1ccn2nc([C@H](CCOCc3ccccc3)Nc3ncnc(N)c3-c3cc(O)cc(F)c3)n(-c3cc(F)cc(F)c3)c(=O)c12 [Example 24, (S)-2-(1-((6-Amino-5-(3-fluoro-5-hydroxyphenyl)pyrimidin-4-yl)amino)-3-(benzyloxy)propyl)-3-(3,5-difluorophenyl)-4-oxo-3,4-dihydropyrrolo[2,1-f][1,2,4]triazine-5-carbonitrile]
1 | Cc1ccn2nc([C@H](C)Nc3ncnc4[nH]cc(-c5cc(O)cc(F)c5)c34)n(-c3ccccc3)c(=O)c12 [Example 27, (S)-2-(1-((5-(3-Fluoro-5-hydroxyphenyl)-7H-pyrrolo[2,3-d]pyrimidin-4-yl)amino)ethyl)-5-methyl-3-phenylpyrrolo[2,1-f][1,2,4]triazin-4(3H)-one]
5 | Cc1ccn2nc([C@H](C)Nc3ncnc(N)c3-c3cc(O)cc(C(F)(F)F)c3)n(-c3ccccc3)c(=O)c12 [Example 28, (S)-2-(1-((6-Amino-5-(3-hydroxy-5-(trifluoromethyl)phenyl)pyrimidin-4-yl)amino)ethyl)-5-methyl-3-phenylpyrrolo[2,1-f][1,2,4]triazin-4(3H)-one]
12 | C[C@H](Nc1ncnc(N)c1-c1cc(O)cc(F)c1)c1nn2ccc(Sc3ccccc3)c2c(=O)n1-c1ccccc1 [Example 34, (S)-2-(1-((6-Amino-5-(3-fluoro-5-hydroxyphenyl)pyrimidin-4-yl)amino)ethyl)-3-phenyl-5-(phenylthio)pyrrolo[2,1-f][1,2,4]triazin-4(3H)-one]
4 | Cc1ccn2nc([C@H](C)Nc3ncncc3-c3cc(O)cc(F)c3)n(-c3ccccc3)c(=O)c12 [Example 35, (S)-2-(1-((5-(3-Fluoro-5-hydroxyphenyl)pyrimidin-4-yl)amino)ethyl)-5-methyl-3-phenylpyrrolo[2,1-f][1,2,4]triazin-4(3H)-one]
5 | Cc1ccn2nc([C@H](C)Nc3ncnc4[nH]cc(C(=O)OCc5ccccc5)c34)n(-c3ccccc3)c(=O)c12 [Example 37, (S)-Benzyl 4-((1-(5-methyl-4-oxo-3-phenyl-3,4-dihydropyrrolo[2,1-f][1,2,4]triazin-2-yl)ethyl)amino)-7H-pyrrolo[2,3-d]pyrimidine-5-carboxylate]
30 | COc1cccc(Cc2ccn3nc([C@H](C)Nc4ncnc(N)c4C#N)n(-c4ccccc4)c(=O)c23)c1 [Example 40, (S)-4-Amino-6-((1-(5-(3-methoxybenzyl)-4-oxo-3-phenyl-3,4-dihydropyrrolo[2,1-f][1,2,4]triazin-2-yl)ethyl)amino)pyrimidine-5-carbonitrile]
3 | Cc1ccn2nc([C@H](C)Nc3ncnc4[nH]cc(Cc5cccc(O)c5)c34)n(-c3ccccc3)c(=O)c12 [Example 43, (S)-2-(1-((5-(3-Hydroxybenzyl)-7H-pyrrolo[2,3-d]pyrimidin-4-yl)amino)ethyl)-5-methyl-3-phenylpyrrolo[2,1-f][1,2,4]triazin-4(3H)-one]
2 | COc1ncc(-c2c[nH]c3ncnc(N[C@@H](C)c4nn5ccc(C)c5c(=O)n4-c4ccccc4)c23)cc1NS(C)(=O)=O [Example 45, (S)—N-(2-Methoxy-5-(4-((1-(5-methyl-4-oxo-3-phenyl-3,4-dihydropyrrolo[2,1-f][1,2,4]triazin-2-yl)ethyl)amino)-7H-pyrrolo[2,3-d]pyrimidin-5-yl)pyridin-3-yl)methanesulfonamide]
1 | Cc1ccn2nc([C@H](C)Nc3ncnc4[nH]cc(-c5cccc6[nH]ncc56)c34)n(-c3ccccc3)c(=O)c12 [Example 52]

Structure (SMILES) | IC50 [nM]
C[C@H](Nc1ncnc(N)c1-c1nnn[nH]1)c1nn2cccc2c(=O)n1-c1ccccc1 [Example 1, (S)-2-(1-(6-Amino-5-(1H-tetrazol-5-yl)pyrimidin-4-ylamino)ethyl)-3-phenylpyrrolo[1,2-f][1,2,4]triazin-4(3H)-one] | 15
